Each structure is given as a SMILES string.

The nature of this data set: xn = mol fraction of the nth substance listed. Conditions: 298.15 K, 100 kPa.

For the molecule `CC[n+]1ccn(C)c1.O=S(=O)([N-]S(=O)(=O)C(F)(F)F)C(F)(F)F` + CCCC[n+]1ccn(C)c1.CCOS(=O)(=O)[O-], for the setting “x1 = 1”, the viscosity (as a rule, the internal friction of a fluid under shear) came out at 32.55 mPa·s.
Consider `CC[n+]1ccn(C)c1.O=S(=O)([N-]S(=O)(=O)C(F)(F)F)C(F)(F)F` + CCOS(=O)(=O)[O-].CC[n+]1ccn(C)c1, for which the viscosity was 90.6 mPa·s (x1 = 0.2008); 72.5 mPa·s (x1 = 0.4356); 67.8 mPa·s (x1 = 0.494); 58.31 mPa·s (x1 = 0.5982); 50.07 mPa·s (x1 = 0.6996); 43.24 mPa·s (x1 = 0.8). The viscosity reads like this: (x1 = 0.9025) 37.67 mPa·s; (x1 = 1) 32.55 mPa·s.
Regarding `CCCC[n+]1ccn(C)c1.CCOS(=O)(=O)[O-]` + CC[n+]1ccn(C)c1.O=S(=O)([N-]S(=O)(=O)C(F)(F)F)C(F)(F)F, the viscosity (x2 = 0.1009) is recorded as 212.4 mPa·s; the viscosity (x2 = 0.2031) is 172.4 mPa·s; the viscosity (x2 = 0.2951) was 139.9 mPa·s; the viscosity (x2 = 0.4027) is given as 109.3 mPa·s; the viscosity (x2 = 0.5989) is listed as 69.7 mPa·s; the viscosity (x2 = 0.8024) came out at 47.55 mPa·s. For the same molecule, the viscosity (x2 = 0.8996) was 39.59 mPa·s.

Source of the values: a compilation of properties of binary mixtures (doi:10.1021/ie303238h).
